# Experimental data taken from article PMC4445002, “Efficient inhibition of tumor angiogenesis and growth by a synthetic peptide blocking S100A4-methionine aminopeptidase 2 interaction” (Molecular Therapy. Methods & Clinical Development, 2015).
# How the values were obtained:
# Assay type in all cases: cell-based, mouse
# [1] = test system: vinculin, integrin β1 and FAK in MSS31 cells; experiment: Expression of vinculin, integrin β1 and FAK by western blot; details: total cell lysates, vs control cells; 5 μg/well, 18 hours
# Procedure: (§1) Figure 7 Stimulation of the formation of focal contacts by the NBD peptide. MSS31 cells incubated with atelocollagen alone or the peptide/atelocollagen complexes were subjected to immunofluorescent staining and western blot analysis. (a) Formation of focal adhesions. The cells were immunostained with antivinculin or anti-integrin β1 antibody followed by Alexa Fluor 488-conjugated secondary antibody. F-actin was visualized with Atto 647N-Phalloidin. Nuclei were stained with DAPI. Scale bars: 50 μm. (b) Western blot analysis of focal adhesion proteins. Total cellular proteins were subjected to immunoblot analysis. (c) Relative expression level of vinculin (VCN), integrin β1 (ITGβ1) and p-FAK. The band intensity of VCN and ITGβ1 and p-FAK relative to that of β-actin and total FAK, respectively, was measured using ImageJ software and normalized to control cells.
# (§2) MSS31 cells cultured in six-well plates were incubated with 5 μg/well of the NBD or the CBD peptide/atelocollagen complex or atelocollagen alone for 18 hours and were lysed in M-PER Mammarian Protein Extraction Reagent (Thermo Fisher Scientific, Waltham, MA) containing complete, EDTA-free, EASYpack (Roche Applied Science, Penzberg, Upper Bavaria, Germany) and Halt Phosphatase Inhibitor Cocktail (Thermo Fisher Scientific). The lysates was used for immunoblot analysis. […]
# [2] = test system: FAK (Tyr397) in MSS31 cells; experiment: FAK Tyr397 phosphorylation by western blot; details: vs control and CBD peptide-treated cells; 5 μg/well, 18 hours
# Procedure: as §1, §2
# [3] = test system: NMIIA in MSS31 cells; experiment: NMIIA filament assembly and S100A4-NMIIA colocalization by immunofluorescence; details: atelocollagen complex, 5 μg/well, 18 hours
# Procedure: Figure 6 Stimulation of NMIIA phosphorylation and filament assembly by the NBD peptide. MSS31 cells incubated with atelocollagen alone or the peptide/atelocollagen complexes were subjected to western blot analysis and immunofluorescent staining. (a) Western blot analysis of NMIIA phosphorylation. Total cellular proteins were subjected to immunoblot analysis. The band intensity of p-NMIIA relative to that of total NMIIA was measured using ImageJ software and normalized to control cells. (b) NMIIA assembly. MSS31 cells were simultaneously incubated with rabbit polyclonal anti-S100A4 antibody and mouse monoclonal anti-NMIIA antibody followed by Alexa Fluor 488-conjugated goat antirabbit IgG and Alexa Fluor 594-conjugated goat antimouse IgG. Nuclei were stained with DAPI. Scale bars: 50 μm. (c) Blockade of S100A4-NMIIA interaction by the NBD peptide. MSS31 cells were immunostained as in a. White arrows and yellow arrows indicate colocalized areas and independently localized areas of S100A4 and NMIIA, respectively. Bars: 20 μm. TEXT PRINTED IN THE PICTURE: (a) NBD: p-NMIIA/total NMIIA: 1.78 | (a) CBD: p-NMIIA/total NMIIA: 0.66
# MSS31 cells cultured in six-well plates were incubated with 5 μg/well of the NBD or the CBD peptide/atelocollagen complex or atelocollagen alone for 18 hours in Culture Slides (4 wells, BD Falcon) and were washed three times with DPBS and fixed for 10 minutes at 4 °C with 4% formaldehyde in DPBS. After permeabilizing with 0.5% Triton X-100 in DPBS for 4 minutes, the cells were treated with 3% bovine serum albumin in DPBS containing 0.1% glycine for 1 hour to block nonspecific binding sites. After washing with DPBS, the cells were incubated for 1 hour with primary antibodies, rinsed, and then stained with secondary antibodies. The primary antibodies used were polyclonal anti-S100A4, monoclonal anti-NMIIA antibody, monoclonal antivinculin antibody and polyclonal anti-integrin β1 antibody. The secondary antibody was Alexa Fluor 488-conjugated goat antirabbit IgG (Invitrogen) or Alexa Fluor 594-conjugated goat antimouse IgG (Invitrogen). […]
# [4] = test system: MSS31 cells; experiment: Cell cycle progression by BrdU flow cytometry; details: 9 hours
# Procedure: Since the overexpression of the SBD in MSS31 cells caused DNA synthesis inhibition, we examined the effect of the NBD peptide on cell cycle progression by flow cytometry after treating the cells with various concentrations of the synthetic peptides (0–1.0 μg/well) complexed with atelocollagen for 9 hours.
# Figure 8 Inhibition of cell cycle progression and cell growth by the NBD peptide. MSS31 cells were treated with atelocollagen alone or the NBD or the CBD peptide/atelocollagen complex in vitro. (a) Cell cycle progression. The cells were labeled with BrdU and then subjected to flow cytometry. (b) Cell growth. The values represent cell growth rate relative to that of control cells that is set to 100%. The NBD peptide inhibited the growth of MSS31 cells compared to the control cells (atelocollagen alone). Data represent the mean ± SD (n = 4), P < 0.01. TEXT PRINTED IN THE PICTURE: (a) NBD: S:13.2%; G1:70.7%; G2/M:9.6% | (a) CBD: S:32.1%; G1:55.4%; G2/M:8.9% | (a) peptide(−): S:36.7%; G1:49.6%; G2/M:9.7%
# MSS31 cells treated with 1.0 μg/ml of the NBD peptide or the CBD peptide/atelocollagen were labeled with 10 μmol/l BrdU for 6 hours. Atelocollagen alone was used as a control. Flow cytometric analysis was carried out using the FITC BrdU Flow Kit (BD Biosciences Pharmigen, San Diego, CA) following the manufacturer’s instructions.
# [5] = test system: MSS31 cells; experiment: Capillary formation (tube formation) on Matrigel
# [6] = test system: S100A4 in MSS31 cells; experiment: S100A4 expression in peptide-loaded cells by western blot; details: atelocollagen complex; Supplementary Figure S3
# [7] = 0–1.0 μg/well with atelocollagen
substance,measurement,setting,value
"NBD: N-terminal 39 amino acid sequence of SBD, from Arg170 to Ileu208; corresponding to MetAP2 (170–208) (REAAEAHRQVRKYVMSWIKPGMTMIEICEKLEDCSRKLI)","expression of vinculin, integrin β1 and FAK",[1],"no significant difference in the expressions of vinculin, integrin β1 and FAK"
same,phosphorylation of Tyr397 of FAK,[2],no significant increase in the phosphorylation of Tyr397 of FAK
same,NMIIA filament assembly,[3],stimulated filament assembly in MSS31 cells
same,colocalization of S100A4 and NMIIA,[3],the majority of S100A4 was not colocalized with NMIIA filaments
same,distribution of NMIIA filaments,[3],evenly distributed throughout the cells and showed no polarization
same,effect on G2/M phase,[4]; [7],not significantly affected
same,effect on cell cycle progression,[4]; [7],leads to cell cycle arrest in the G1/S phase
same,cells in G2/M phase,"[4]; atelocollagen complex, BrdU flow cytometry, representative study, without peptide 9.7%",9.6%
same,cells in S phase,"[4]; atelocollagen complex, BrdU flow cytometry, representative study, without peptide 36.7%",13.2%
same,cells in G1 phase,"[4]; atelocollagen complex, BrdU flow cytometry, representative study, without peptide 49.6%",70.7%
same,time at which inhibition of capillary formation is apparent,"[5]; after peptide loading, Supplementary Figure S4",≤ 6 h
same,tube (capillary) formation,"[5]; atelocollagen complex, 5 μg/well, Matrigel with 50 ng/ml HGF, 16 hours, n = 6, *P < 0.01",severely impaired tube formation
same,expression level of S100A4,[6],no apparent change in the expression level of S100A4
